How the values were obtained:
Cavia porcellus [1] = species on record: Cavia porcellus; assay: Ability to inhibit the electrically evoked contraction of the guinea pig ileum(GPI) of the Compound was determined; format: functional
Mu-type opioid receptor = Mu-type opioid receptor (Cavia porcellus, UniProt P97266); assay: Binding affinity towards Opioid receptor mu 1 in guinea pig brain using [3H]DAMGO as radioligand.
Cavia porcellus [2] = species on record: Cavia porcellus; assay: Shift in the activity was determined; ns= no significant shift observed with 1000 nM CTAP used as a mu antagonist; format: functional
[3] = target: Kappa-type opioid receptor (Cavia porcellus, UniProt P41144); assay: Binding affinity towards Opioid receptor kappa 1 in guinea pig brain using [3H]U-69593 as radioligand.
Sequence of Kappa-type opioid receptor (P41144 whole entry): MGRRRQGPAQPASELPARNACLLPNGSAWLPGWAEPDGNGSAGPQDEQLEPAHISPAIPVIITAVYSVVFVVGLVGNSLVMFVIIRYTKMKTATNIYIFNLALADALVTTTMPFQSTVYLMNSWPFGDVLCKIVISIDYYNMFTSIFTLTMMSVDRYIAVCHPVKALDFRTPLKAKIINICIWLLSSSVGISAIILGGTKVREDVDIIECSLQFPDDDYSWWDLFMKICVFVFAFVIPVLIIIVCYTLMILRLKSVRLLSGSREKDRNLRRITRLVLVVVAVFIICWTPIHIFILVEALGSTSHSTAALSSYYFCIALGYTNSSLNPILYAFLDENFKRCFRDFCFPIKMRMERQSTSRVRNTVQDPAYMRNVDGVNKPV

[4] = Compound was evaluated for its receptor binding affinity at [3H]cyclo[D-pen2,p-cl-Phe4,D-Pen5](delta receptor) to opioid receptor in guinea pig brain

Sequence of Mu-type opioid receptor (P97266 whole entry): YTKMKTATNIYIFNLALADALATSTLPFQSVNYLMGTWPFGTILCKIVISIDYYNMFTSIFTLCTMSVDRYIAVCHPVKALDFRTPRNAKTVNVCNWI

For `CC[C@H](C)[C@H](NC(=O)[C@H](CCCN=C(N)N)NC(=O)[C@H](CCCN=C(N)N)NC(=O)[C@H](CC(C)C)NC(=O)[C@H](Cc1ccccc1)NC(=O)[C@@H](C)NC(=O)CNC(=O)[C@@H](N)Cc1ccc(O)cc1)C(=O)N[C@@H](CCCN=C(N)N)C(=O)N1CCC[C@H]1C(=O)N[C@@H](CCCCN)C(N)=O`, the IC50 (Cavia porcellus [1]) was 8.1 nM, the IC50 (Mu-type opioid receptor) was 260 nM and the IC50 (Cavia porcellus [2]) was “Not Active”. The IC50 [3] was 0.76 nM.

In the case of `CC[C@H](C)[C@H](NC(=O)[C@H](CCCNC(=N)N)NC(=O)[C@H](CCCNC(=N)N)NC(=O)[C@H](CC(C)C)NC(=O)[C@H](Cc1ccccc1)NC(=O)CNC(=O)CNC(=O)[C@@H](N)Cc1ccc(O)cc1)C(=O)N[C@@H](CCCNC(=N)N)C(=O)N1CCC[C@H]1C(=O)N[C@@H](CCCCN)C(N)=O`, the IC50 (Cavia porcellus [2]) is reported as “Not Active” and the IC50 [4] is reported as 25.5 nM.

In the case of `CC[C@H](C)[C@H](NC(=O)[C@H](CCCN=C(N)N)NC(=O)[C@H](CCCN=C(N)N)NC(=O)[C@H](CC(C)C)NC(=O)[C@H](Cc1ccccc1)NC(=O)[C@H](C)NC(=O)CNC(=O)[C@@H](N)Cc1ccc(O)cc1)C(=O)N[C@@H](CCCN=C(N)N)C(=O)N1CCC[C@H]1C(=O)N[C@@H](CCCCN)C(N)=O`, the IC50 (Cavia porcellus [1]) is reported as 1.7 nM, the IC50 (Mu-type opioid receptor) is reported as 210 nM and the IC50 (Cavia porcellus [2]) is reported as “Not Active”. For the same compound, the IC50 [3] was 1.1 nM.
